From EP4631968A1, “PEPTIDE FOR CARTILAGE REGENERATION, AND USES THEREOF” (Caregen Co., Ltd., priority 2022, dated 2024)
Where no end group is shown, it is not given here.

Columns and labels:
Assay type in all cases: cell-based
[1] = test system: human adipose-derived mesenchymal stem cells (AD-MSC); test: Cytotoxicity, CCK-8 assay; conditions: different concentrations, after 7 days, 450 nm
[2] = test system: human adipose-derived mesenchymal stem cells (AD-MSC); test: Cell morphology changes, SRB staining; conditions: different concentrations, after 7 days
Method: Additionally, for SRB staining, after suctioning the medium from the plate, 60 µL of 3.7 % formalin was added to the 96-well plate to be stained and fixed for 1 minute. After suctioning 3.7 % formalin, 70 µL of SRB staining solution (sulforhodamine B sodium salt (sigma, S9012): 0.2 g in 100 mL DDW) was added and stained. The plate was covered with aluminum foil, blocked from light, and incubated overnight at room temperature. After washing with 100 µL of 1 % acetic acid using a multi-pipette, it was dried and observed under a microscope.

[3] = test system: human-derived chondrocytes (C28/I2, human chondrocyte cell line); test: Cytotoxicity, CCK-8 assay; conditions: C28/I2 cells, different concentrations, after 3 days, 450 nm
Method: The cytotoxicity of Peptide-1 or Peptide-2 upon addition to human-derived chondrocytes (C28/I2, human chondrocyte cell line) was analyzed using a CCK-8 assay.
Specifically, human-derived chondrocytes were seeded in a 96-well plate at a density of 3 × 10^3 cells/well and cultured in DMEM medium (cat. 11995-065, Gibco) for 24 hours. […] Meanwhile, as a negative control group, an experimental group to which the peptide was not added was used.

## KVSYAAEKNRKNY [Peptide-1, KVSYAAEKNRKNY]
[1]
  toxicity (CCK-8 activity): did not exhibit toxicity
[2]
  change in cell morphology in SRB staining: did not show any change in cell morphology
[3]
  toxicity (CCK-8 activity): did not exhibit toxicity

## SSFYF [Peptide-2, SSFYF]
[1]
  toxicity (CCK-8 activity): did not exhibit toxicity
[2]
  change in cell morphology in SRB staining: did not show any change in cell morphology
[3]
  toxicity (CCK-8 activity): did not exhibit toxicity
